Calls of active or inactive are those of the source. No cut-off for these calls is given here.
How the values were obtained:
[1] = Oral plasma exposure in SCID mouse at 5 mg/kg, po measured after 1 hr; type: ADME, organism-based; conditions: for concentration at 1 h: SCID, plasma
[2] = target: T1, Protein cereblon/CREB-binding protein (Homo sapiens, UniProt Q92793+Q96SW2); assay: PROTAC activity at CBP/CRBN in human VCaP cells assessed as maximal protein degradation at 1 uM incubated for 4 hrs by Western blot analysis relative to control; type: cell-based
[3] = target: T2, Protein cereblon/Histone acetyltransferase p300 (Homo sapiens, UniProt Q09472+Q96SW2); assay: PROTAC activity at p300/CRBN in human VCaP cells assessed as maximal protein degradation at 1 uM incubated for 4 hrs by Western blot analysis relative to control; type: cell-based
Target sequence in this assay (Q09472 2-2414 limits assumed): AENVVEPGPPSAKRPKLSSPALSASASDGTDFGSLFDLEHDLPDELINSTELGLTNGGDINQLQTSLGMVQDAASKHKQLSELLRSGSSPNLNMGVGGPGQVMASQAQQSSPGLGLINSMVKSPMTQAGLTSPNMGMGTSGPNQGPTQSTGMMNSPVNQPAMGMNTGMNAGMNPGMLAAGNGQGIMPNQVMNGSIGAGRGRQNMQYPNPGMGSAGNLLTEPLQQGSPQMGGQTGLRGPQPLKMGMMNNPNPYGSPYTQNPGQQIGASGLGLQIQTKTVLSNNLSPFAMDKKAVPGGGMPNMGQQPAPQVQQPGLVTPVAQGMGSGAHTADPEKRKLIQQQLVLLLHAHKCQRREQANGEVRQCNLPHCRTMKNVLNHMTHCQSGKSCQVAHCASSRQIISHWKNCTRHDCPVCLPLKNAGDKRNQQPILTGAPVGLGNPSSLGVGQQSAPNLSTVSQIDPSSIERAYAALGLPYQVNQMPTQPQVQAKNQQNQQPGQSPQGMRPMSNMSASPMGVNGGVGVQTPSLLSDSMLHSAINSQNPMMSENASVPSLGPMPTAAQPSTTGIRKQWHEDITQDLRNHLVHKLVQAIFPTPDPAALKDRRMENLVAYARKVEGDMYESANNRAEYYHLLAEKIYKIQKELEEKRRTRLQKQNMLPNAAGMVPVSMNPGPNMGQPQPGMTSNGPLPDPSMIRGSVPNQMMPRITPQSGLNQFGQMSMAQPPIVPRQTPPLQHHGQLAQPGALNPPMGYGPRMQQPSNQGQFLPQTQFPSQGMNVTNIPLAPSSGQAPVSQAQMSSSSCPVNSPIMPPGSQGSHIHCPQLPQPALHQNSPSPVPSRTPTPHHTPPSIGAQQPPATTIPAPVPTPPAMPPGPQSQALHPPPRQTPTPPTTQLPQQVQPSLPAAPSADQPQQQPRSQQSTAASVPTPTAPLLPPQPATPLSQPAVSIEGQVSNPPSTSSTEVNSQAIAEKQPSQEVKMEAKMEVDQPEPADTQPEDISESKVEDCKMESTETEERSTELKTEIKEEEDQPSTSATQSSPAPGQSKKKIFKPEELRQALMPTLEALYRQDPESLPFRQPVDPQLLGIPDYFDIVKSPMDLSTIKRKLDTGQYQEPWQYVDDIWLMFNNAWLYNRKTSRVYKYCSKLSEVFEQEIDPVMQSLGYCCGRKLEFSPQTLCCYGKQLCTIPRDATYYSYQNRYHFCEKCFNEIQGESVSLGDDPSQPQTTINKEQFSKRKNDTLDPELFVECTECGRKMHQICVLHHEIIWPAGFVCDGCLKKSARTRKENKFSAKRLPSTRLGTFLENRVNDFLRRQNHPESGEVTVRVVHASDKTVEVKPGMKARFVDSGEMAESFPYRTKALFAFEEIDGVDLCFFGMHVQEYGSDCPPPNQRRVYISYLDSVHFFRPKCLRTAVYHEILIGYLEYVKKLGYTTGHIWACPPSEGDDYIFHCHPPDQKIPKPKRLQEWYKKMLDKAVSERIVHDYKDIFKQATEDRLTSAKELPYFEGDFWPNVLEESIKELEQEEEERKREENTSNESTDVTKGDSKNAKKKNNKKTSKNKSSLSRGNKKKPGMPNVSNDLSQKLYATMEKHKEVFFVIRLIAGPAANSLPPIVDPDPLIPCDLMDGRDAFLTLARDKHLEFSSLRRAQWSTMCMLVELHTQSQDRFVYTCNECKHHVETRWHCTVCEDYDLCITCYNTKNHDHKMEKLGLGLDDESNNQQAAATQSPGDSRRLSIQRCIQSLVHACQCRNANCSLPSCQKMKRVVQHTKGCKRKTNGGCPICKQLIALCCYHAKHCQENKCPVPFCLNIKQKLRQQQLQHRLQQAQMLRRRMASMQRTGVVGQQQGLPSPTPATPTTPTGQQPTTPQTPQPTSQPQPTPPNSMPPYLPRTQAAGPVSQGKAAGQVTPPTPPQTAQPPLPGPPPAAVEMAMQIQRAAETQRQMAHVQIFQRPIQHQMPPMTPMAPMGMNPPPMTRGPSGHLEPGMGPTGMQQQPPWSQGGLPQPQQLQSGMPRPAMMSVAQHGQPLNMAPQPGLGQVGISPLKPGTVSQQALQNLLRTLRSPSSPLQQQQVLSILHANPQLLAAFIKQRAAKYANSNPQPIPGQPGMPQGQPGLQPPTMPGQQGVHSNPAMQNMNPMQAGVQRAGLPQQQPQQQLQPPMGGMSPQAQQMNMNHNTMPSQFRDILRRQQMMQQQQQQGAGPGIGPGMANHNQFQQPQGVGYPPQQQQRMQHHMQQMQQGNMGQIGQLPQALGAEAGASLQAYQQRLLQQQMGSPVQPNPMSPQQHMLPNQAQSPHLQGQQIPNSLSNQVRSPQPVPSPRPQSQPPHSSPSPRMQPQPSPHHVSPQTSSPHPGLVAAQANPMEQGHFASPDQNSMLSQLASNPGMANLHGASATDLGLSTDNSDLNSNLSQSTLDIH
Target sequence in this assay (Q96SW2 whole entry partner): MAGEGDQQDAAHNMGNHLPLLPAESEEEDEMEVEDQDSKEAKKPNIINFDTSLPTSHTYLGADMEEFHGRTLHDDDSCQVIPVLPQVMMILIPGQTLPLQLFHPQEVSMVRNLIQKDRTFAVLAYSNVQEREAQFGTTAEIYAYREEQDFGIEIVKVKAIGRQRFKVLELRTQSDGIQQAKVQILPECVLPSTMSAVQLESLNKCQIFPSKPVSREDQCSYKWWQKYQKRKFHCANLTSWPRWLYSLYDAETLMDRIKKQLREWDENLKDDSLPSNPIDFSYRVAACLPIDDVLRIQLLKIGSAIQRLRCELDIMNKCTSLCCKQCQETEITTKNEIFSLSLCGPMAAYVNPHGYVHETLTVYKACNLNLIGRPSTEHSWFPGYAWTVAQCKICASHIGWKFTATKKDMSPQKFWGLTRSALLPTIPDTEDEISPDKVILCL

[4] = target: T1, Protein cereblon/CREB-binding protein; assay: PROTAC activity at CBP/CRBN in human VCaP cells assessed as protein degradation incubated for 4 hrs by Western blot analysis; type: cell-based
[5] = Oral plasma exposure in SCID mouse at 5 mg/kg, po measured after 6 hrs; type: ADME, organism-based; conditions: for concentration at 6 h: SCID, plasma
[6] = target: T2, Protein cereblon/Histone acetyltransferase p300; assay: PROTAC activity at p300/CRBN in human VCaP cells assessed as protein degradation incubated for 4 hrs by Western blot analysis; type: cell-based
[7] = Oral plasma exposure in SCID mouse at 5 mg/kg, po measured after 3 hrs; type: ADME, organism-based; conditions: for concentration at 3 h: SCID, plasma
[8] = tested on: CWR22R; assay: Reduction in c-Myc gene expression in AR positive human 22Rv1 cells assessed as reduction in mRNA level at 1000 nM measured after 6 hrs by qRT-PCT analysis; type: functional, cell-based
[9] = tested on: LNCaP; assay: Reduction in KLK3 gene expression in AR positive human LNCaP cells assessed as reduction in mRNA level at 1000 nM measured after 6 hrs by qRT-PCT analysis; type: functional, cell-based
[10] = tested on: VCaP; assay: Antiproliferative activity against AR positive human VCaP cells assessed inhibition of cell growth measured after 4 days by CellTiter-Glo Luminescent cell viability assay; type: functional, cell-based; conditions: 96 h
[11] = tested on: LNCaP; assay: Reduction in c-Myc gene expression in AR positive human LNCaP cells assessed as reduction in mRNA level at 1000 nM measured after 6 hrs by qRT-PCT analysis; type: functional, cell-based
[12] = tested on: CWR22R; assay: Reduction in KLK3 gene expression in AR positive human 22Rv1 cells assessed as reduction in mRNA level at 1000 nM measured after 6 hrs by qRT-PCT analysis; type: functional, cell-based
[13] = tested on: LNCaP; assay: Reduction in AR gene expression in AR positive human LNCaP cells assessed as reduction in mRNA level at 1000 nM measured after 6 hrs by qRT-PCT analysis; type: functional, cell-based
[14] = tested on: CWR22R; assay: Reduction in AR gene expression in AR positive human 22Rv1 cells assessed as reduction in mRNA level at 1000 nM measured after 6 hrs by qRT-PCT analysis; type: functional, cell-based
[15] = tested on: LNCaP; assay: Antiproliferative activity against AR positive human LNCaP cells assessed inhibition of cell growth measured after 4 days by CellTiter-Glo Luminescent cell viability assay; type: functional, cell-based; conditions: 96 h
[16] = tested on: VCaP; assay: Antitumor activity against human VCaP cells xenografted in CB17 SCID mouse model assessed as tumor growth inhibition at 20 mg/kg, po qd scheduled 5 days in a week measured on day 63; type: functional; conditions: 1512 h, time 63 day, read-out: TGI
[17] = tested on: CWR22R; assay: Antiproliferative activity against AR positive human 22Rv1 cells assessed inhibition of cell growth measured after 4 days by CellTiter-Glo Luminescent cell viability assay; type: functional, cell-based; conditions: 22Rv1, 96 h
[18] = tested on: VCaP; assay: Reduction in c-Myc gene expression in AR positive human VCaP cells assessed as reduction in mRNA level at 1000 nM measured after 6 hrs by qRT-PCT analysis; type: functional, cell-based
[19] = tested on: VCaP; assay: Reduction in AR gene expression in AR positive human VCaP cells assessed as reduction in mRNA level at 1000 nM measured after 6 hrs by qRT-PCT analysis; type: functional, cell-based
[20] = tested on: VCaP; assay: Reduction in KLK3 gene expression in AR positive human VCaP cells assessed as reduction in mRNA level at 1000 nM measured after 6 hrs by qRT-PCT analysis; type: functional, cell-based

CC(=O)N1CCc2c(c(N3CCCc4cc(-c5cnn(C)c5)c(C(F)F)cc43)nn2C2CCN(CC3CN(c4ccc5c(c4)C(=O)N(C4CCC(=O)NC4=O)C5=O)C3)CC2)C1 (configuration not stated)
concentration at 1 h [1]: 23.8 ng/mL | Emax [2]: > 95% | Emax [3]: > 95% | DC50 [4]: 1.1 nM | concentration at 6 h [5]: 7.4 ng/mL | DC50 [6]: 0.4 nM | concentration at 3 h [7]: 16.7 ng/mL

CC(=O)N1CCc2c(c(N3CCCc4cc(-c5cnn(C)c5)c(C(F)F)cc43)nn2[C@H]2CC[C@H](CN3CCN(c4ccc5c(c4)CN(C4CCC(=O)NC4=O)C5=O)CC3)CC2)C1 (some centres not stated)
Emax [2]: > 95% | Emax [3]: > 95% | DC50 [4]: 0.1 nM | DC50 [6]: < 0.1 nM

CC(=O)N1CCc2c(c(N3CCCc4cc(-c5cnn(C)c5)c(C(F)F)cc43)nn2C2CCN(C3CC4(C3)CN(c3ccc5c(c3)C(=O)N(C3CCC(=O)NC3=O)C5=O)C4)CC2)C1 (configuration not stated)
concentration at 1 h [1]: 183 ng/mL | Emax [2]: > 95% | Emax [3]: > 95% | DC50 [4]: 0.5 nM | concentration at 6 h [5]: 149 ng/mL | DC50 [6]: 0.4 nM | concentration at 3 h [7]: 235 ng/mL

CC(=O)N1CCc2c(c(N3CCCc4cc(-c5cnn(C)c5)c(C(F)F)cc43)nn2[C@H]2CC[C@H](CN3CCN(c4cccc5c4C(=O)N(C4CCC(=O)NC4=O)C5=O)CC3)CC2)C1 (some centres not stated)
Emax [2]: 53% | Emax [3]: 33% | DC50 [4]: 700 nM | DC50 [6]: > 1000 nM

CC(=O)N1CCc2c(c(N3CCCc4cc(-c5cnn(C)c5)c(C(F)F)cc43)nn2C2CCN(C(=O)CCNc3ccc4c(c3)C(=O)N(C3CCC(=O)NC3=O)C4=O)CC2)C1 (configuration not stated)
concentration at 1 h [1]: 5.1 ng/mL | Emax [2]: > 95% | Emax [3]: > 95% | DC50 [4]: 0.9 nM | concentration at 6 h [5]: 2 ng/mL | DC50 [6]: 0.4 nM | concentration at 3 h [7]: 3.2 ng/mL

CC(=O)N1CCc2c(c(N3CCCc4cc(-c5cnn(C)c5)c(C(F)F)cc43)nn2C2CCN(C(=O)CCCCNc3cccc4c3C(=O)N(C3CCC(=O)NC3=O)C4=O)CC2)C1 (configuration not stated)
concentration at 1 h [1]: 5.4 ng/mL | Emax [2]: > 95% | Emax [3]: > 95% | DC50 [4]: 0.4 nM | concentration at 6 h [5]: 1.6 ng/mL | DC50 [6]: 0.1 nM | concentration at 3 h [7]: 2.7 ng/mL

CC(=O)N1CCc2c(c(N3CCCc4cc(-c5cnn(C)c5)c(C(F)F)cc43)nn2C2CCN(C(=O)Nc3ccc4c(c3)C(=O)N(C3CCC(=O)NC3=O)C4=O)CC2)C1 (configuration not stated)
Cp ([1]; in vivo, po, 5 mg/kg, 1 h, BLD = below limit of detection): Bld | Emax [2]: > 95% | Emax [3]: > 95% | DC50 [4]: < 0.2 nM | Cp ([5]; in vivo, po, 5 mg/kg, 6 h, BLD = below limit of detection): Bld | DC50 [6]: < 0.2 nM | Cp ([7]; in vivo, po, 5 mg/kg, 3 h, BLD = below limit of detection): Bld

CC(=O)N1CCc2c(c(N3CCCc4cc(-c5cnn(C)c5)c(C(F)F)cc43)nn2C2CCN(C3CC4(CCN(c5ccc6c(c5)C(=O)N(C5CCC(=O)NC5=O)C6=O)CC4)C3)CC2)C1 (configuration not stated)
concentration at 1 h [1]: 493 ng/mL | Emax [2]: > 95% | Emax [3]: > 95% | DC50 [4]: 1.1 nM | concentration at 6 h [5]: 328 ng/mL | DC50 [6]: 0.4 nM | concentration at 3 h [7]: 312 ng/mL

CC(=O)N1CCc2c(c(N3CCCc4cc(-c5cnn(C)c5)c(C(F)F)cc43)nn2C2CCN(C(=O)CCNc3cccc4c3C(=O)N(C3CCC(=O)NC3=O)C4=O)CC2)C1 (configuration not stated)
Emax [2]: 88% | Emax [3]: 81% | DC50 [4]: 8 nM | DC50 [6]: 18 nM

CC(=O)N1CCc2c(c(N3CCCc4cc(-c5cnn(C)c5)c(C(F)F)cc43)nn2C2CCN(C(=O)c3ccc4c(c3)C(=O)N(C3CCC(=O)NC3=O)C4=O)CC2)C1 (configuration not stated)
Emax [2]: < 50% | Emax [3]: < 50% | DC50 [4]: > 1000 nM | DC50 [6]: > 1000 nM

CC(=O)N1CCc2c(c(N3CCCc4cc(-c5cnn(C)c5)c(C(F)F)cc43)nn2C2CCN(C3CCN(c4ccc5c(c4)C(=O)N(C4CCC(=O)NC4=O)C5=O)CC3)CC2)C1 (configuration not stated)
concentration at 1 h [1]: 122 ng/mL | Emax [2]: > 95% | Emax [3]: > 95% | DC50 [4]: 1.1 nM | concentration at 6 h [5]: 82.2 ng/mL | DC50 [6]: 0.6 nM | concentration at 3 h [7]: 122 ng/mL

CNC(=O)c1ccc(N2C(=S)N(c3ccc(C#N)c(C(F)(F)F)c3)C(=O)C2(C)C)cc1F [ENZALUTAMIDE]
Activity [8]: Active | Activity [9]: Active | IC50 [10]: 9500 nM | Activity [11]: Active | Activity [12]: Active | Activity [13]: inactive | Activity [14]: inactive | IC50 [15]: 8000 nM | inhibition in vivo at 20 mg/kg [16]: 2.8% | IC50 [17]: > 1000 nM | Activity [18]: Active | Activity [19]: inactive | Activity [20]: Active

CC(=O)N1CCc2c(c(N3CCCc4cc(-c5cnn(C)c5)c(C(F)F)cc43)nn2C2CCN(C(=O)CCCCCNc3cccc4c3C(=O)N(C3CCC(=O)NC3=O)C4=O)CC2)C1 (configuration not stated)
Emax [2]: 115% | Emax [3]: > 95% | DC50 [4]: 0.4 nM | DC50 [6]: 0.2 nM

CC(=O)N1CCc2c(c(N3CCCc4cc(-c5cnn(C)c5)c(C(F)F)cc43)nn2C2CCN(C(=O)CCCNc3cccc4c3C(=O)N(C3CCC(=O)NC3=O)C4=O)CC2)C1 (configuration not stated)
Emax [2]: 92% | Emax [3]: 93% | DC50 [4]: 1.4 nM | DC50 [6]: 1.2 nM

CC(=O)N1CCc2c(c(N3CCCc4cc(-c5cnn(C)c5)c(C(F)F)cc43)nn2C2CCN(C(=O)Nc3cccc4c3C(=O)N(C3CCC(=O)NC3=O)C4=O)CC2)C1 (configuration not stated)
Emax [2]: < 50% | Emax [3]: < 50% | DC50 [4]: > 1000 nM | DC50 [6]: > 1000 nM

CC(=O)N1CCc2c(c(N3CCCc4cc(-c5cnn(C)c5)c(C(F)F)cc43)nn2C2CCN(C(=O)CCCCNc3ccc4c(c3)C(=O)N(C3CCC(=O)NC3=O)C4=O)CC2)C1 (configuration not stated)
Emax [2]: > 95% | Emax [3]: > 95% | DC50 [4]: 0.4 nM | DC50 [6]: 0.4 nM

CC(=O)N1CCc2c(c(N3CCCc4cc(-c5cnn(C)c5)c(C(F)F)cc43)nn2C2CCN(C(=O)c3cccc4c3C(=O)N(C3CCC(=O)NC3=O)C4=O)CC2)C1 (configuration not stated)
Emax [2]: < 50% | Emax [3]: < 50% | DC50 [4]: > 1000 nM | DC50 [6]: > 1000 nM

CC(=O)N1CCc2c(c(N3CCCc4cc(-c5cnn(C)c5)c(C(F)F)cc43)nn2C2CCN(C3CN(c4ccc5c(c4)C(=O)N(C4CCC(=O)NC4=O)C5=O)C3)CC2)C1 (configuration not stated)
concentration at 1 h [1]: 1050 ng/mL | Emax [2]: > 95% | Emax [3]: > 95% | DC50 [4]: 1.3 nM | concentration at 6 h [5]: 613 ng/mL | DC50 [6]: 1.1 nM | concentration at 3 h [7]: 962 ng/mL

CC(=O)N1CCc2c(c(N3CCCc4cc(-c5cnn(C)c5)c(C(F)F)cc43)nn2C2CCN(C(=O)CNc3ccc4c(c3)C(=O)N(C3CCC(=O)NC3=O)C4=O)CC2)C1 (configuration not stated)
concentration at 1 h [1]: 2.6 ng/mL | Emax [2]: > 95% | Emax [3]: > 95% | DC50 [4]: 0.7 nM | concentration at 6 h [5]: 1.5 ng/mL | DC50 [6]: 2 nM | concentration at 3 h [7]: 1.4 ng/mL

From ChEMBL document CHEMBL5518240 (J Med Chem, 2024)
